ChEMBL document CHEMBL3627707, “Incorporation of metabolically stable ketones into a small molecule probe to increase potency and water solubility” (Bioorg Med Chem Lett, 2015)
≈ marks a conversion by molar mass, not a printed value. Calls of active or inactive are those of the source. No cut-off for these calls is given here.

Assays:
[1] = Metabolic stability in mouse liver microsomes assessed as compound remaining after 45 mins by LC-MS/MS analysis; type: ADME; conditions: read-out: Stability
[2] = Metabolic stability in mouse liver microsomes assessed as compound remaining after 30 mins by LC-MS/MS analysis; type: ADME; conditions: read-out: Stability
[3] = Metabolic stability in mouse liver microsomes assessed as compound remaining after 15 mins by LC-MS/MS analysis; type: ADME; conditions: read-out: Stability
[4] = Metabolic stability in mouse liver microsomes assessed as compound remaining after 5 mins by LC-MS/MS analysis; type: ADME; conditions: for remaining at 5 min: liver microsomes, read-out: Stability; for Stability: microsomes, 5 min
[5] = Selectivity ratio of IC50 for human BJeH cells to IC50 for human RAS-G12V overexpressing BJeLR cells; type: ADME, cell-based; conditions: BJeH cells and RAS-G12V overexpressing BJeLR cells, read-out: Ratio IC50
[6] = Growth inhibition of human RAS-G12V overexpressing BJeLR cells after 48 hrs by alamar blue assay; type: functional, cell-based
DRD = experiment: Growth inhibition of human RAS-G12V overexpressing DRD cells after 48 hrs by alamar blue assay; type: functional, cell-based
[7] = Solubility of compound in water; type: physicochemical; conditions: buffer
[8] = (§1) Half life in mouse liver microsomes by LC-MS/MS analysis; type: ADME; conditions: liver microsomes
Plasma = experiment: Stability in mouse plasma at 500 ng/ml measured upto 120 mins; type: ADME, cell-free; conditions: 2 h
[9] = Growth inhibition of human HT1080 cells after 48 hrs by alamar blue assay; type: functional; conditions: HT-1080, 48 h
Liver = experiment: as §1; type: ADME; conditions: microsomes
[10] = Growth inhibition of human RAS-G12V overexpressing BJeLR cells; type: functional
[11] = biological target: T1, Cystine/glutamate transporter (Homo sapiens, UniProt Q9UPY5); experiment: Inhibition of Xct in human CCF-STTG1 cells assessed as glutamate release after 2 hrs by fluorometry; type: cell-based
T1 sequence (Q9UPY5 whole entry): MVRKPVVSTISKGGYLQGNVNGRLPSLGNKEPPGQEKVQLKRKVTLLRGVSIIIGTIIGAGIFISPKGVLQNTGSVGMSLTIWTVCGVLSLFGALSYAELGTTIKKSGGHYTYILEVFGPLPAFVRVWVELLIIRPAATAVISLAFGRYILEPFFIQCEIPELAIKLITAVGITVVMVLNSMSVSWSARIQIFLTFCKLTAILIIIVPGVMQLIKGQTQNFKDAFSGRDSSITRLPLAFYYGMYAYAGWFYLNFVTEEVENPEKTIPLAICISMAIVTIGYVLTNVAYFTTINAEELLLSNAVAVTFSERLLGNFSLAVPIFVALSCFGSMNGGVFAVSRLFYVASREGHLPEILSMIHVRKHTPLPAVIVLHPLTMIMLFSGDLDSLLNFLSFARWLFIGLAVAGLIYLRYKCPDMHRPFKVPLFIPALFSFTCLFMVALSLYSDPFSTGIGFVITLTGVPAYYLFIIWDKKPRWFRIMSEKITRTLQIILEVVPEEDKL

Structure (SMILES)	remaining at 0.75 h [1] [%]	remaining at 0.5 h [2] [%]	remaining at […] [3] [%]	remaining at 5 min [4] [%]	selectivity ratio [5]	IC50 [6] [µM]	inhibition (DRD)	solubility [7] [µM]	half-life [8] [min]	Stability (Plasma)	GI50 [9] [µM]	t1/2 (Liver) [min]	Stability [4] [%]	GI50 [10] [µM]	IC50 [11] [µM]
C=CCN1CCN(CC(=O)c2ccc(OC(C)C)c(-n3c(CN4CCN(C(=O)COc5ccc(Cl)cc5)CC4)nc4ccccc4c3=O)c2)CC1	0	0	2.4	37.3	1.5	0.195	inactive								
CC(C)Oc1ccc(C(=O)CN2CCOCC2)cc1-n1c(CN2CCN(C(=O)COc3ccc(Cl)cc3)CC2)nc2ccccc2c1=O	21.2	30.6	53.2	83.8	5	0.427	Active								
CCOc1ccccc1-n1c(C(C)N2CCN(C(=O)COc3ccc(Cl)cc3)CC2)nc2ccccc2c1=O (stereo unspecified) [ERASTIN]							Active	90 (≈ 49.2 µg/mL)	< 5						
CC(C)Oc1ccc(C(=O)CN2CCNCC2)cc1-n1c(CN2CCN(C(=O)COc3ccc(Cl)cc3)CC2)nc2ccccc2c1=O	76.9	76.2	94.7	87.4						Stable	0.55				
CC(=O)c1ccc(OC(C)C)c(-n2c(CN3CCN(C(=O)COc4ccc(Cl)cc4)CC3)nc3ccccc3c2=O)c1	0	0	0				Active				0.059	3.8	0.5		
CC(C)Oc1ccc(C(=O)Cn2ccnc2)cc1-n1c(CN2CCN(C(=O)COc3ccc(Cl)cc3)CC2)nc2ccccc2c1=O	64.1	75.4	82.9	89.3	42	0.003	Active		78.5	Stable	0.314				
COc1ccc(CN2CCN(CC(=O)c3ccc(OC(C)C)c(-n4c(CN5CCN(C(=O)COc6ccc(Cl)cc6)CC5)nc5ccccc5c4=O)c3)CC2)cc1	0.2	0.3	2.8	29.7	13	0.013	Active								
CC(C)Oc1ccc(C(=O)CF)cc1-n1c(CN2CCN(C(=O)COc3ccc(Cl)cc3)CC2)nc2ccccc2c1=O	0	0	0				Active					4.7	15.5		
CC(C)Oc1ccc(C(=O)C(F)(F)F)cc1-n1c(CN2CCN(C(=O)COc3ccc(Cl)cc3)CC2)nc2ccccc2c1=O					8	0.21									
CC(C)Oc1ccc(C=O)cc1-n1c(CN2CCN(C(=O)COc3ccc(Cl)cc3)CC2)nc2ccccc2c1=O					15	0.008		80 (≈ 46 µg/mL)						0.008	
CC(C)Oc1ccc(C(=O)CN2CCN(C)CC2)cc1-n1c(CN2CCN(C(=O)COc3ccc(Cl)cc3)CC2)nc2ccccc2c1=O					1.9	0.474	inactive								
CC(C)Oc1ccc(CN2CCNCC2)cc1-n1c(CN2CCN(C(=O)COc3ccc(Cl)cc3)CC2)nc2ccccc2c1=O	59.4	66.6	79.2		3	0.3		1400 (≈ 903 µg/mL)	55.3		1.2				0.8
